Results published in patent US9073855B2, “BCL-2 selective apoptosis-inducing agents for the treatment of cancer and immune diseases” (AbbVie Inc., priority 2008, dated 2015).

Tests used:
GST-Bcl-2 = GST-Bcl-2 (Homo sapiens, UniProt P10415); test: TR-FRET binding assay, GST-Bcl-2 with F-Bak peptide probe; settings: TR-FRET Binding Affinity, GST-Bcl-2, F-Bak peptide probe
Summary of the method: (§1)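 Competitive TR-FRET: GST-fusion protein, fluorescent Bak peptide probe and Tb-labelled anti-GST antibody incubated with compound dilution series (starting 50 μM as 2× stock, 10% DMSO) for 3 h at RT. Excitation 340/35 nm; Ki derived via Wang's exact competitive-binding equation.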

GST-Bcl-XL = GST-Bcl-XL (Homo sapiens, UniProt Q07817); test: TR-FRET binding assay, GST-Bcl-XL with F-Bak peptide probe; settings: TR-FRET Binding Affinity, GST-Bcl-XL, F-Bak peptide probe
Summary of the method: as §1

Sequence of GST-Bcl-XL (Q07817 whole entry): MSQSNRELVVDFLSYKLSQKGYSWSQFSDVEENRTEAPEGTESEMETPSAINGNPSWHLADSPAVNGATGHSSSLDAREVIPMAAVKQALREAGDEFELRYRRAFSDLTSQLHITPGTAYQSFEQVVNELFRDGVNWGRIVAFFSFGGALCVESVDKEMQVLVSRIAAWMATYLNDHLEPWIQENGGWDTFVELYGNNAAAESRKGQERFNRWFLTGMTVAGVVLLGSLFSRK
Sequence of GST-Bcl-2 (P10415 whole entry, the tested form may be a part): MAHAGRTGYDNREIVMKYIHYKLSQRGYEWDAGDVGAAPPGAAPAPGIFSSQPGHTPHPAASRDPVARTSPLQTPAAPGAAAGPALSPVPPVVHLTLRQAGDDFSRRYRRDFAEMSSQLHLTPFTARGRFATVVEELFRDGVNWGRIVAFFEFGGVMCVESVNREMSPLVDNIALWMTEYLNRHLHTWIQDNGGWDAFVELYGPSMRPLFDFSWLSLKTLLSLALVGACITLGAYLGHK

## CN(C)CCCCNc1ccc(S(=O)(=O)NC(=O)c2ccc(N3CCN(Cc4ccccc4-c4ccc(Cl)cc4)CC3)cc2Oc2ccccc2)cc1[N+](=O)[O-] [Example 156, 4-{4-[(4′-chloro-1,1′-biphenyl-2-yl)methyl]piperazin-1-yl}-N-[(4-{[4-(dimethylamino)butyl]amino}-3-nitrophenyl)sulfonyl]-2-phenoxybenzamide]
GST-Bcl-2
  Ki: 0.116 nM
GST-Bcl-XL
  Ki: 6.16 nM

## O=C(NS(=O)(=O)c1ccc(NC2CCN(S(=O)(=O)c3ccccc3)CC2)c([N+](=O)[O-])c1)c1ccc(N2CCN(Cc3ccccc3-c3ccc(Cl)cc3)CC2)cc1Oc1ccccc1 [Example 157, 4-{4-[(4′-chloro-1,1′-biphenyl-2-yl)methyl]piperazin-1-yl}-N-[(3-nitro-4-{[1-(phenylsulfonyl)piperidin-4-yl]amino}phenyl)sulfonyl]-2-phenoxybenzamide]
GST-Bcl-2
  Ki: 4.45 nM
GST-Bcl-XL
  Ki: > 660 nM

## O=C(NS(=O)(=O)c1ccc(NC2CCN(S(=O)(=O)c3cccc4cccnc34)CC2)c([N+](=O)[O-])c1)c1ccc(N2CCN(Cc3ccccc3-c3ccc(Cl)cc3)CC2)cc1Oc1ccccc1 [Example 158, 4-{4-[(4′-chloro-1,1′-biphenyl-2-yl)methyl]piperazin-1-yl}-N-[(3-nitro-4-{[1-(quinolin-8-ylsulfonyl)piperidin-4-yl]amino}phenyl)sulfonyl]-2-phenoxybenzamide]
GST-Bcl-2
  Ki: 64.8 nM
GST-Bcl-XL
  Ki: > 660 nM

## CN(C)CC[C@H](Nc1ccc(S(=O)(=O)NC(=O)c2ccc(N3CCN(Cc4ccccc4-c4ccc(Cl)cc4)CC3)cc2Oc2ccccc2)cc1[N+](=O)[O-])c1cccs1 [Example 161, 4-{4-[(4′-chloro-1,1′-biphenyl-2-yl)methyl]piperazin-1-yl}-N-[(4-{[(1S)-3-(dimethylamino)-1-thien-2-ylpropyl]amino}-3-nitrophenyl)sulfonyl]-2-phenoxybenzamide]
GST-Bcl-2
  Ki: 1.71 nM
GST-Bcl-XL
  Ki: > 660 nM

## O=C(NS(=O)(=O)c1ccc(NCc2cccs2)c([N+](=O)[O-])c1)c1ccc(N2CCN(Cc3ccccc3-c3ccc(Cl)cc3)CC2)cc1Oc1ccccc1 [Example 162, 4-{4-[(4′-chloro-1,1′-biphenyl-2-yl)methyl]piperazin-1-yl}-N-({3-nitro-4-[(thien-2-ylmethyl)amino]phenyl}sulfonyl)-2-phenoxybenzamide]
GST-Bcl-2
  Ki: 1.35 nM
GST-Bcl-XL
  Ki: 167 nM

## O=C(NS(=O)(=O)c1ccc(NCC2CCOCC2)c(S(=O)(=O)C(F)(F)F)c1)c1ccc(N2CCN(Cc3ccccc3-c3ccc(Cl)cc3)CC2)cc1Oc1ccccc1 [Example 163, 4-{4-[(4′-chloro-1,1′-biphenyl-2-yl)methyl]piperazin-1-yl}-2-phenoxy-N-({4-[(tetrahydro-2H-pyran-4-ylmethyl)amino]-3-[(trifluoromethyl)sulfonyl]phenyl}sulfonyl)benzamide]
GST-Bcl-2
  Ki: 5.62 nM
GST-Bcl-XL
  Ki: > 660 nM

## O=C(NS(=O)(=O)c1ccc(NCCn2ccnn2)c([N+](=O)[O-])c1)c1ccc(N2CCN(Cc3ccccc3-c3ccc(Cl)cc3)CC2)cc1Oc1ccccc1 [Example 164, 4-{4-[(4′-chloro-1,1′-biphenyl-2-yl)methyl]piperazin-1-yl}-N-[(3-nitro-4-{[2-(1H-1,2,3-triazol-1-yl)ethyl]amino}phenyl)sulfonyl]-2-phenoxybenzamide]
GST-Bcl-2
  Ki: 0.963 nM
GST-Bcl-XL
  Ki: 138 nM

## O=C(NS(=O)(=O)c1ccc(NCCn2nccn2)c([N+](=O)[O-])c1)c1ccc(N2CCN(Cc3ccccc3-c3ccc(Cl)cc3)CC2)cc1Oc1ccccc1 [Example 165, 4-{4-[(4′-chloro-1,1′-biphenyl-2-yl)methyl]piperazin-1-yl}-N-[(3-nitro-4-{[2-(2H-1,2,3-triazol-2-yl)ethyl]amino}phenyl)sulfonyl]-2-phenoxybenzamide]
GST-Bcl-2
  Ki: 0.823 nM
GST-Bcl-XL
  Ki: 36.6 nM

## O=C(NS(=O)(=O)c1ccc(NCCc2ccncc2)c([N+](=O)[O-])c1)c1ccc(N2CCN(Cc3ccccc3-c3ccc(Cl)cc3)CC2)cc1Oc1ccccc1 [Example 169, 4-{4-[(4′-chloro-1,1′-biphenyl-2-yl)methyl]piperazin-1-yl}-N-({3-nitro-4-[(2-pyridin-4-ylethyl)amino]phenyl}sulfonyl)-2-phenoxybenzamide]
GST-Bcl-2
  Ki: 0.97 nM
GST-Bcl-XL
  Ki: 88.6 nM

## O=C(NS(=O)(=O)c1ccc(NCC2CCOCC2)c([N+](=O)[O-])c1)c1ccc(N2CCN(Cc3cc(N4CCOCC4)ccc3-c3ccc(Cl)cc3)CC2)cc1Oc1cccc2[nH]ccc12 [Example 198, 4-{4-[(4′-chloro-4-morpholin-4-yl-1,1′-biphenyl-2-yl)methyl]piperazin-1-yl}-2-(1H-indol-4-yloxy)-N-({3-nitro-4-[(tetrahydro-2H-pyran-4-ylmethyl)amino]phenyl}sulfonyl)benzamide]
GST-Bcl-2
  Ki: 3.97 nM
GST-Bcl-XL
  Ki: > 660 nM

## CC1(C)CCC(CN2CCN(c3ccc(C(=O)NS(=O)(=O)c4ccc(NN5CCN(CCO)CC5)c([N+](=O)[O-])c4)c(Oc4ccc5[nH]ccc5c4)c3)CC2)=C(c2ccc(Cl)cc2)C1 [Example 233, 4-(4-{[2-(4-chlorophenyl)-4,4-dimethylcyclohex-1-en-1-yl]methyl}piperazin-1-yl)-N-[(4-{[4-(2-hydroxyethyl)piperazin-1-yl]amino}-3-nitrophenyl)sulfonyl]-2-(1H-indol-5-yloxy)benzamide]
GST-Bcl-2
  Ki: 0.243 nM
GST-Bcl-XL
  Ki: > 660 nM

## CN1CC[C@H](Nc2ccc(S(=O)(=O)NC(=O)c3ccc(N4CCN(CC5=C(c6ccc(Cl)cc6)CC(C)(C)CC5)CC4)cc3Oc3ccc4[nH]ccc4c3)cc2[N+](=O)[O-])C1 [Example 234, 4-(4-{[2-(4-chlorophenyl)-4,4-dimethylcyclohex-1-en-1-yl]methyl}piperazin-1-yl)-2-(1H-indol-5-yloxy)-N-[(4-{[(3S)-1-methylpyrrolidin-3-yl]amino}-3-nitrophenyl)sulfonyl]benzamide]
GST-Bcl-2
  Ki: 0.369 nM
GST-Bcl-XL
  Ki: 24.5 nM

## CC1(C)CCC(CN2CCN(c3ccc(C(=O)NS(=O)(=O)c4ccc(NC5CCN(CCCF)CC5)c([N+](=O)[O-])c4)c(Oc4ccc5[nH]ccc5c4)c3)CC2)=C(c2ccc(Cl)cc2)C1 [Example 235, 4-(4-{[2-(4-chlorophenyl)-4,4-dimethylcyclohex-1-en-1-yl]methyl}piperazin-1-yl)-N-[(4-{[1-(3-fluoropropyl)piperidin-4-yl]amino}-3-nitrophenyl)sulfonyl]-2-(1H-indol-5-yloxy)benzamide]
GST-Bcl-2
  Ki: 0.252 nM
GST-Bcl-XL
  Ki: 58.2 nM

## CC1(C)CCC(CN2CCN(c3ccc(C(=O)NS(=O)(=O)c4ccc(NCC5CCOCC5)c([N+](=O)[O-])c4)c(Oc4ccc5[nH]ccc5c4)c3)CC2CO)=C(c2ccc(Cl)cc2)C1 (stereo not drawn) [Example 236, 4-[4-{[2-(4-chlorophenyl)-4,4-dimethylcyclohex-1-en-1-yl]methyl}-3-(hydroxymethyl)piperazin-1-yl]-2-(1H-indol-5-yloxy)-N-({3-nitro-4-[(tetrahydro-2H-pyran-4-ylmethyl)amino]phenyl}sulfonyl)benzamide]
GST-Bcl-2
  Ki: 0.369 nM
GST-Bcl-XL
  Ki: > 660 nM

## CC1(C)CCC(CN2CCN(c3ccc(C(=O)NS(=O)(=O)c4ccc(NCC5(N)CCOCC5)c([N+](=O)[O-])c4)c(Oc4ccc5[nH]ccc5c4)c3)CC2CO)=C(c2ccc(Cl)cc2)C1 (stereo not drawn) [Example 237, N-[(4-{[(4-aminotetrahydro-2H-pyran-4-yl)methyl]amino}-3-nitrophenyl)sulfonyl]-4-[4-{[2-(4-chlorophenyl)-4,4-dimethylcyclohex-1-en-1-yl]methyl}-3-(hydroxymethyl)piperazin-1-yl]-2-(1H-indol-5-yloxy)benzamide]
GST-Bcl-2
  Ki: 0.401 nM
GST-Bcl-XL
  Ki: 268 nM
